According to ChEMBL document CHEMBL5634146, “Discovery of benzimidazole-indazole derivatives as potent FLT3-tyrosine kinase domain mutant kinase inhibitors for acute myeloid leukemia” (Eur J Med Chem, 2023):

Experiments:
in vitro [1] = conditions: mouse, liver S9 fraction
in vitro [2] = conditions: human, liver S9 fraction

remaining at 0.5 h (in vitro [1]): 61%
remaining at 0.5 h (in vitro [2]): 61%
SMILES: N[C@H]1CC[C@H](NC(=O)c2ccc3[nH]nc(-c4nc5ccc(N6CCOCC6)cc5[nH]4)c3c2)C1
